Assay results taken from patent publication US10710978B2, “STK4 inhibitors for treatment of hematologic malignancies” (Dana-Farber Cancer Institute, Inc., priority 2015, dated 2020).
Like-named read-outs stand apart in the source and are kept apart here.

How the values were obtained:
Test in all cases: KiNativ assay
Type in all cases: binding
Conditions in all cases: H929 live cell
AurA, AurB, AurC = system: AurA, AurB, AurC
Procedure: (§1) Biochemical IC50s of the compounds of the present disclosure against various kinases were measured in a KiNativ assay. Compounds were screened in duplicate at 10 μM in H929 live cell. IC50 was measured via Mass spectroscopy (MS).

CDK2 = CDK2 (Homo sapiens (Human), UniProt P24941)
Procedure: as §1

CK1g2 = CK1g2 (Homo sapiens (Human), UniProt P78368)
Procedure: as §1

CSK = CSK (Homo sapiens (Human), UniProt P41240)
Procedure: as §1

CaMK1d = CaMK1d (Homo sapiens (Human), UniProt Q8IU85)
Procedure: as §1

EphB2 = EphB2 (Homo sapiens (Human), UniProt P29323)
Procedure: as §1

GSK3B = GSK3B (Homo sapiens (Human), UniProt P49841)
Procedure: as §1

IKKb = IKKb (Homo sapiens (Human), UniProt O14920)
Procedure: as §1

IKKe, TBK1 = system: IKKe, TBK1
Procedure: as §1

IRE1 = IRE1 (Homo sapiens (Human), UniProt O75460)
Procedure: as §1

JAK1 domain1 = JAK1 domain1 (Homo sapiens (Human), UniProt P23458)
Procedure: as §1

JAK1 domain2 = JAK1 domain2 (Homo sapiens (Human), UniProt P23458)
Procedure: as §1

LKB1 = LKB1 (Homo sapiens (Human), UniProt Q15831)
Procedure: as §1

LOK = LOK (Homo sapiens (Human), UniProt O94804)
Procedure: as §1

MAP3K2, MAP3K3 = system: MAP3K2, MAP3K3
Procedure: as §1

MAP3K5 = MAP3K5 (Homo sapiens (Human), UniProt Q99683)
Procedure: as §1

MST4, YSK1 = system: MST4, YSK1
Procedure: as §1

NDR1 = NDR1 (Homo sapiens (Human), UniProt Q15208)
Procedure: as §1

NDR2 = NDR2 (Homo sapiens (Human), UniProt Q9Y2H1)
Procedure: as §1

NEK1 = NEK1 (Homo sapiens (Human), UniProt Q96PY6)
Procedure: as §1

NEK3 = NEK3 (Homo sapiens (Human), UniProt P51956)
Procedure: as §1

NEK4 = NEK4 (Homo sapiens (Human), UniProt P51957)
Procedure: as §1

NuaK1 = NuaK1 (Homo sapiens (Human), UniProt O60285)
Procedure: as §1

PHKg2 = PHKg2 (Homo sapiens (Human), UniProt P15735)
Procedure: as §1

PIK3C3 = PIK3C3 (Homo sapiens (Human), UniProt Q8NEB9)
Procedure: as §1

PIP4K2A = PIP4K2A (Homo sapiens (Human), UniProt P48426)
Procedure: as §1

PKD3 = PKD3 (Homo sapiens (Human), UniProt O94806)
Procedure: as §1

RSK2 domain1 = RSK2 domain1 (Homo sapiens (Human), UniProt P51812)
Procedure: as §1

RSK2 domain2 = RSK2 domain2 (Homo sapiens (Human), UniProt P51812)
Procedure: as §1

SNRK = SNRK (Homo sapiens (Human), UniProt Q9NRH2)
Procedure: as §1

TAO1, TAO3 = system: TAO1, TAO3
Procedure: as §1

ULK1 = ULK1 (Homo sapiens (Human), UniProt O75385)
Procedure: as §1

[1] = system: ZC1/HGK, ZC2/TNIK, ZC3/MINK
Procedure: as §1

[2] = range class, read-out: % inhibition

Sequence of NuaK1 (O60285 whole entry): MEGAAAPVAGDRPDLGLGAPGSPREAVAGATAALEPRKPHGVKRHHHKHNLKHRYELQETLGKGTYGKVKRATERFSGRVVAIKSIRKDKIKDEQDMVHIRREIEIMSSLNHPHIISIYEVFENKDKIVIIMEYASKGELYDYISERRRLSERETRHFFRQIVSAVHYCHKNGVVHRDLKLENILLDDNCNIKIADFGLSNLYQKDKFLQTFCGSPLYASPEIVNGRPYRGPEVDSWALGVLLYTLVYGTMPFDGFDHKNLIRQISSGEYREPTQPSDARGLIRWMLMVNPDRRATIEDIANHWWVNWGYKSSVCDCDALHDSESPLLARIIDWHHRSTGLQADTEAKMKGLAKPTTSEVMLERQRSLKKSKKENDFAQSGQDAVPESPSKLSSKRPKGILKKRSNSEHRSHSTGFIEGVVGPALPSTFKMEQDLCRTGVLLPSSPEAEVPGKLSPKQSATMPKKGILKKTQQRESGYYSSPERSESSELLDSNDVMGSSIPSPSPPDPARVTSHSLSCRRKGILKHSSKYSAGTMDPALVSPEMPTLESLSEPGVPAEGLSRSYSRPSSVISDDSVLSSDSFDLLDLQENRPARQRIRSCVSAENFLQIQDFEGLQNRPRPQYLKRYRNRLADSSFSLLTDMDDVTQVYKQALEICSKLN
Sequence of PKD3 (O94806 whole entry): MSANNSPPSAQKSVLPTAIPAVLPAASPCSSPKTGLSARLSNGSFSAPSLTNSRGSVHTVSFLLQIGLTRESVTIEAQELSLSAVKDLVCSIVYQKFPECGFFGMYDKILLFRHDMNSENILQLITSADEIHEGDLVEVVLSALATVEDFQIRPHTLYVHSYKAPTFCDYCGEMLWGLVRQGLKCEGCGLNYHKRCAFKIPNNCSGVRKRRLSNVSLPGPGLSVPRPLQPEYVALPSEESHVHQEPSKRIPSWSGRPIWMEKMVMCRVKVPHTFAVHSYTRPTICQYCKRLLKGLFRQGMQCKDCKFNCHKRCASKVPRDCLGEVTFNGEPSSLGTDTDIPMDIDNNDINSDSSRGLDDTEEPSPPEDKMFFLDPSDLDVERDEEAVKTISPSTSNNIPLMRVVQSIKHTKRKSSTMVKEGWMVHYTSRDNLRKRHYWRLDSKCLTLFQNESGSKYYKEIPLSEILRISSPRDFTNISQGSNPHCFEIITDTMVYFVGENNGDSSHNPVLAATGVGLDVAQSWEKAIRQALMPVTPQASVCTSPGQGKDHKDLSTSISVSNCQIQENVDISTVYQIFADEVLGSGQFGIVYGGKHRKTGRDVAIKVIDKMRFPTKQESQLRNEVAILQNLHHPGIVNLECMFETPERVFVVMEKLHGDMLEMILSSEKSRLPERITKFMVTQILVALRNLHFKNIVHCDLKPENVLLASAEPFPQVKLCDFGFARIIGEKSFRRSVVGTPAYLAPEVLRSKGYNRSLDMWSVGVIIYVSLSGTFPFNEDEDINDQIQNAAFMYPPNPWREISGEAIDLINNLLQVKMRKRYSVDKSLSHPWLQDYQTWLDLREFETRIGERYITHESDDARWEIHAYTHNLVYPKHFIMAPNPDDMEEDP
Sequence of GSK3B (P49841 whole entry): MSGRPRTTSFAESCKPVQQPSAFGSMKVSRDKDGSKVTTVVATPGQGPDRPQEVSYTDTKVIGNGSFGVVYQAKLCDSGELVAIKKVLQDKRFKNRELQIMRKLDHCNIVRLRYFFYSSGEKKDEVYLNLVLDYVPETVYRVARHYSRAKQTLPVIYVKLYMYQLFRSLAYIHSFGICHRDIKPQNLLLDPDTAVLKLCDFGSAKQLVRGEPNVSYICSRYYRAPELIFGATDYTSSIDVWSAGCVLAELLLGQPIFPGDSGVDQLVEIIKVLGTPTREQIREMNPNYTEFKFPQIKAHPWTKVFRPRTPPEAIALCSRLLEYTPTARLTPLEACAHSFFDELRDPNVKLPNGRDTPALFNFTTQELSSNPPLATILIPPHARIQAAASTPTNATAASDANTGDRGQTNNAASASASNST
Sequence of NDR2 (Q9Y2H1 whole entry): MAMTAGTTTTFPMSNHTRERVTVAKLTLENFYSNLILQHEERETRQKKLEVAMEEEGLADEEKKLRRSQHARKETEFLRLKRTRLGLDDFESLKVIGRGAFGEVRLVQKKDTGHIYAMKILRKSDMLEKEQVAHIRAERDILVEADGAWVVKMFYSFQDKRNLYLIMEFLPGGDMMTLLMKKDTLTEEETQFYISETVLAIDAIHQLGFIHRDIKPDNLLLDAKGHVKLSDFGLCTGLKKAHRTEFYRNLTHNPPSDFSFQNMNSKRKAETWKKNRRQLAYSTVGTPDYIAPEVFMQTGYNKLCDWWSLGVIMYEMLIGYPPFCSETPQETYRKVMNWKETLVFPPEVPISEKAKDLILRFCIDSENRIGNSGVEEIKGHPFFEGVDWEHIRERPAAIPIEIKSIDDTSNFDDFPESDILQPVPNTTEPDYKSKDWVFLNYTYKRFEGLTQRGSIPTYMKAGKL
Sequence of PIP4K2A (P48426 whole entry): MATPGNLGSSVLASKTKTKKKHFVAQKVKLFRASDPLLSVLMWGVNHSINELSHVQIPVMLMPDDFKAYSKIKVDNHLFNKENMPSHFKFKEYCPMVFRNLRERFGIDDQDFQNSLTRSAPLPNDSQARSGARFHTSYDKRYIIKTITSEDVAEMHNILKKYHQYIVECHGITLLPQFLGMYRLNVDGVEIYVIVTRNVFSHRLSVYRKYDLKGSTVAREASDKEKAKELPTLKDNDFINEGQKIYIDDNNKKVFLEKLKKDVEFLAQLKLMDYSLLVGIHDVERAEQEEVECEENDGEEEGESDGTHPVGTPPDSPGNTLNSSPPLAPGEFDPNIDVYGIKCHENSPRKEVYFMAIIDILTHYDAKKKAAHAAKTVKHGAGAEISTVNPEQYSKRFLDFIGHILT
Sequence of CK1g2 (P78368 whole entry): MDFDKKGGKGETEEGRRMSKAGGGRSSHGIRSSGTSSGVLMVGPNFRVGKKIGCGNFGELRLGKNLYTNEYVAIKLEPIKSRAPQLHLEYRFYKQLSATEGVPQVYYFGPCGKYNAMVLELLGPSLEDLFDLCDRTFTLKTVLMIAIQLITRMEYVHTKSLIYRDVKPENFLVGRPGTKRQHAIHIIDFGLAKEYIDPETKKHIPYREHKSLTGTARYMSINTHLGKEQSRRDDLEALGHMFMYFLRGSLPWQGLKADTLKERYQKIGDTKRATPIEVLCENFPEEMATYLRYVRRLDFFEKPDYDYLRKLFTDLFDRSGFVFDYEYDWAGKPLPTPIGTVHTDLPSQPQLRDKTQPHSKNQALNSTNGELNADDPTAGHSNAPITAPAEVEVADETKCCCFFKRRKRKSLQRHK
Sequence of LKB1 (Q15831 whole entry): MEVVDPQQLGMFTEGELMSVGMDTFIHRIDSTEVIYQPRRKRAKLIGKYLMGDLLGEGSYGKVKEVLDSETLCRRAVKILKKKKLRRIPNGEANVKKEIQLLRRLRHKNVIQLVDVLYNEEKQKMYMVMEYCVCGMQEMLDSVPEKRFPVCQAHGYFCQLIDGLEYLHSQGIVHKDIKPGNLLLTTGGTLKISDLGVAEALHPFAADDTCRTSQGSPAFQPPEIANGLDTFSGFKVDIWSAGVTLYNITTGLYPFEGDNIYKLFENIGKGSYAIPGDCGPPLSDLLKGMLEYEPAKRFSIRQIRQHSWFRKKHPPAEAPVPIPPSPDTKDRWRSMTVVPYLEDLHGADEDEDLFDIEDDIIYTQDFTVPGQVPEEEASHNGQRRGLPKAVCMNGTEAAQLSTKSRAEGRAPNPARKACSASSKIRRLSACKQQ
Sequence of ULK1 (O75385 whole entry): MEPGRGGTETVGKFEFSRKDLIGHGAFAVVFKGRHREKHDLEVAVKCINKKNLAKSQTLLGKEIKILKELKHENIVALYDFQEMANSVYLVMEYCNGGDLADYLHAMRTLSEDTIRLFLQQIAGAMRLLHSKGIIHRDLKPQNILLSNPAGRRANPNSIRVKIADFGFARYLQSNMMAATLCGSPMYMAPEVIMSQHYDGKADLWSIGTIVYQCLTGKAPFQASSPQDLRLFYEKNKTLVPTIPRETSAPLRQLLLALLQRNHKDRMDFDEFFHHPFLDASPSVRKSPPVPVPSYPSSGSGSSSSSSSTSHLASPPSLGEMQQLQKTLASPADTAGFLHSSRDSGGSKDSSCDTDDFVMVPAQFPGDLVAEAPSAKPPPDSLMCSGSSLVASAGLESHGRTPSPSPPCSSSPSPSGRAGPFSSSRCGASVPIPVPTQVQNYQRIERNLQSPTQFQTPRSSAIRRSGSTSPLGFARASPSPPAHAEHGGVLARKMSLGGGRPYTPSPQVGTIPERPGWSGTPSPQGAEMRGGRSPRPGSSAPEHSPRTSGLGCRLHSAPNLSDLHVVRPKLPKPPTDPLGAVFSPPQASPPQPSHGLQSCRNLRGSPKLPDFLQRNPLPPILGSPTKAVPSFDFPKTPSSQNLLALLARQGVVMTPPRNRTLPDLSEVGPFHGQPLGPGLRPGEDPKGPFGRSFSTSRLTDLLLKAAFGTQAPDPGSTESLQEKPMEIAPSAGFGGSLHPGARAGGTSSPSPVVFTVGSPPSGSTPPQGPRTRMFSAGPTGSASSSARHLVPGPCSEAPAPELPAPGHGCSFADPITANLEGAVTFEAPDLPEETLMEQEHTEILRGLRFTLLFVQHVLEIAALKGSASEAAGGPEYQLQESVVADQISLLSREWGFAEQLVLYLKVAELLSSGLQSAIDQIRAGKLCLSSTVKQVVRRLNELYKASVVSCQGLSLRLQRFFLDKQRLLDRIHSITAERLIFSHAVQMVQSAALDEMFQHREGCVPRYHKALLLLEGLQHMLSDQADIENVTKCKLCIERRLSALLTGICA

## Nc1ncc(-c2ccc(NS(=O)(=O)C3CC3)cc2F)cc1-c1ccc2c(c1)CCNC2=O [Compound I-51, N-(4-(6-amino-5-(1-oxo-1,2,3,4-tetrahydroisoquinolin-6-yl)pyridin-3-yl)-3-fluorophenyl) cyclopropanesulfonamide]
AurA, AurB, AurC; 10 μM, range class
  % inhibition: 50-75%
AurA, AurB, AurC
  inhibition (10 μM): 53.2%
CDK2; [2]
  inhibition at 10 µM: 35 to 40%
CDK2; read-out: inhibition (10 μM)
  inhibition at 10 µM: 35%
CK1g2; [2]
  inhibition at 10 µM: 75 to 90%
CK1g2; read-out: inhibition (10 μM)
  inhibition at 10 µM: 84.1%
CSK; [2]
  inhibition at 10 µM: 0%
CSK; read-out: inhibition (10 μM)
  inhibition at 10 µM: 6.9%
CaMK1d; [2]
  inhibition at 10 µM: 0%
CaMK1d; read-out: inhibition (10 μM)
  inhibition at 10 µM: -1.7%
EphB2; [2]
  inhibition at 10 µM: 0%
EphB2; read-out: inhibition (10 μM)
  inhibition at 10 µM: 8.8%
GSK3B; [2]
  inhibition at 10 µM: > 90%
GSK3B; read-out: inhibition (10 μM)
  inhibition at 10 µM: 90.2%
IKKb; [2]
  inhibition at 10 µM: 0%
IKKb; read-out: inhibition (10 μM)
  inhibition at 10 µM: -19.5%
IKKe, TBK1; 10 μM, range class
  % inhibition: 0.0%
IKKe, TBK1
  inhibition (10 μM): 26.7%
IRE1; [2]
  inhibition at 10 µM: 0%
IRE1; read-out: inhibition (10 μM)
  inhibition at 10 µM: -43.1%
JAK1 domain1; [2]
  inhibition at 10 µM: 0%
JAK1 domain1; read-out: inhibition (10 μM)
  inhibition at 10 µM: -8.2%
JAK1 domain2; [2]
  inhibition at 10 µM: 0%
JAK1 domain2; read-out: inhibition (10 μM)
  inhibition at 10 µM: -6.4%
LKB1; [2]
  inhibition at 10 µM: 0%
LKB1; read-out: inhibition (10 μM)
  inhibition at 10 µM: 5.1%
LOK; [2]
  inhibition at 10 µM: > 90%
LOK; read-out: inhibition (10 μM)
  inhibition at 10 µM: 96.9%
MAP3K2, MAP3K3; 10 μM, range class
  % inhibition: 0.0%
MAP3K2, MAP3K3
  inhibition (10 μM): 26.7%
MAP3K5; [2]
  inhibition at 10 µM: 0%
MAP3K5; read-out: inhibition (10 μM)
  inhibition at 10 µM: 16.3%
MST4, YSK1; 10 μM, range class
  % inhibition: 50-75%
MST4, YSK1
  inhibition (10 μM): 68.1%
NDR1; [2]
  inhibition at 10 µM: 0%
NDR1; read-out: inhibition (10 μM)
  inhibition at 10 µM: 16.8%
NDR2; [2]
  inhibition at 10 µM: 0%
NDR2; read-out: inhibition (10 μM)
  inhibition at 10 µM: 8.4%
NEK1; [2]
  inhibition at 10 µM: 0%
NEK1; read-out: inhibition (10 μM)
  inhibition at 10 µM: 30.2%
NEK3; [2]
  inhibition at 10 µM: 0%
NEK3; read-out: inhibition (10 μM)
  inhibition at 10 µM: -13%
NEK4; [2]
  inhibition at 10 µM: 0%
NEK4; read-out: inhibition (10 μM)
  inhibition at 10 µM: 25.8%
NuaK1
  inhibition (10 μM): 68.8%
NuaK1; [2]
  inhibition at 10 µM: 50 to 75%
NuaK1; read-out: inhibition (10 μM)
  inhibition at 10 µM: 71.9%
PHKg2; [2]
  inhibition at 10 µM: 0%
PHKg2; read-out: inhibition (10 μM)
  inhibition at 10 µM: -45.4%
PIK3C3; [2]
  inhibition at 10 µM: 0%
PIK3C3; read-out: inhibition (10 μM)
  inhibition at 10 µM: -13.2%
PIP4K2A; [2]
  inhibition at 10 µM: 0%
PIP4K2A; read-out: inhibition (10 μM)
  inhibition at 10 µM: -16.5%
PKD3; [2]
  inhibition at 10 µM: 50 to 75%
PKD3; read-out: inhibition (10 μM)
  inhibition at 10 µM: 74.8%
RSK2 domain1; [2]
  inhibition at 10 µM: 35 to 40%
RSK2 domain1; read-out: inhibition (10 μM)
  inhibition at 10 µM: 49.9%
RSK2 domain2; [2]
  inhibition at 10 µM: 0%
RSK2 domain2; read-out: inhibition (10 μM)
  inhibition at 10 µM: 9.9%
SNRK; [2]
  inhibition at 10 µM: 0%
SNRK; read-out: inhibition (10 μM)
  inhibition at 10 µM: -26.2%
TAO1, TAO3; 10 μM, range class
  % inhibition: 75-90%
TAO1, TAO3
  inhibition (10 μM): 80.4%
ULK1; [2]
  inhibition at 10 µM: 35 to 40%
ULK1; read-out: inhibition (10 μM)
  inhibition at 10 µM: 40%
[1]; 10 μM, range class
  % inhibition: >90%
[1]
  inhibition (10 μM): 97.2%
